From patent US20230257396A1, “MACROCYCLES AND THEIR USE” (BLOSSOMHILL THERAPEUTICS, INC., priority 2020, published 2023)

What was measured:
Assay in all cases: KINOMEscan kinase binding assay (Eurofins/DiscoveRx), % Ctrl
kinases [1] = target: T1, kinases (Homo sapiens, UniProt P00519, M351T); details: target ABL1(M351T)-phosphorylated; 1 μM
T1 construct: purchased Eurofins/DiscoveRx; host or cells: E. coli BL21-derived host (T7 phage display) for most kinases; HEK-293 for the rest
Procedure, shortened: (§1)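 Competition binding: DNA- or phage-tagged kinases (T7 phage in E. coli BL21, or HEK-293-expressed) with immobilized biotinylated ligand beads and test compound, 1 h at room temperature. Bead-bound kinase eluted and quantified by qPCR; % Ctrl = (compound − positive control)/(negative control − positive control) ×100 at a single compound concentration.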

kinases [2] = target: T2, kinases (Homo sapiens, UniProt P00533); details: target EGFR; 1 μM
T2 construct: purchased Eurofins/DiscoveRx; host or cells: E. coli BL21-derived host (T7 phage display) for most kinases; HEK-293 for the rest
Procedure, shortened: as §1

kinases [3] = target: T3, kinases (Homo sapiens, UniProt P00533, DEL746-750); details: target EGFR(E746-A750del); 1 μM
T3 construct: purchased Eurofins/DiscoveRx; host or cells: E. coli BL21-derived host (T7 phage display) for most kinases; HEK-293 for the rest
Procedure, shortened: as §1

kinases [4] = target: T4, kinases (Homo sapiens, UniProt P00533, L861Q); details: target EGFR(L861Q); 1 μM
T4 construct: purchased Eurofins/DiscoveRx; host or cells: E. coli BL21-derived host (T7 phage display) for most kinases; HEK-293 for the rest
Procedure, shortened: as §1

kinases [5] = target: T5, kinases (Homo sapiens, UniProt P00533, T790M); details: target EGFR(T790M); 1 μM
T5 construct: purchased Eurofins/DiscoveRx; host or cells: E. coli BL21-derived host (T7 phage display) for most kinases; HEK-293 for the rest
Procedure, shortened: as §1

kinases [6] = target: T6, kinases (Homo sapiens, UniProt P07949); details: target RET; 1 μM
T6 construct: purchased Eurofins/DiscoveRx; host or cells: E. coli BL21-derived host (T7 phage display) for most kinases; HEK-293 for the rest
Procedure, shortened: as §1

kinases [7] = target: T7, kinases (Homo sapiens, UniProt P07949, V804L); details: target RET(V804L); 1 μM
T7 construct: purchased Eurofins/DiscoveRx; host or cells: E. coli BL21-derived host (T7 phage display) for most kinases; HEK-293 for the rest
Procedure, shortened: as §1

kinases [8] = target: T8, kinases (Homo sapiens, UniProt P10721, A829P); details: target KIT(A829P); 1 μM
T8 construct: purchased Eurofins/DiscoveRx; host or cells: E. coli BL21-derived host (T7 phage display) for most kinases; HEK-293 for the rest
Procedure, shortened: as §1

kinases [9] = target: T9, kinases (Homo sapiens, UniProt P10721, D816H); details: target KIT(D816H); 1 μM
T9 construct: purchased Eurofins/DiscoveRx; host or cells: E. coli BL21-derived host (T7 phage display) for most kinases; HEK-293 for the rest
Procedure, shortened: as §1

kinases [10] = target: T10, kinases (Homo sapiens, UniProt P36888, K663Q); details: target FLT3(K663Q); 1 μM
T10 construct: purchased Eurofins/DiscoveRx; host or cells: E. coli BL21-derived host (T7 phage display) for most kinases; HEK-293 for the rest
T10 sequence (P36888 27-993 K663Q): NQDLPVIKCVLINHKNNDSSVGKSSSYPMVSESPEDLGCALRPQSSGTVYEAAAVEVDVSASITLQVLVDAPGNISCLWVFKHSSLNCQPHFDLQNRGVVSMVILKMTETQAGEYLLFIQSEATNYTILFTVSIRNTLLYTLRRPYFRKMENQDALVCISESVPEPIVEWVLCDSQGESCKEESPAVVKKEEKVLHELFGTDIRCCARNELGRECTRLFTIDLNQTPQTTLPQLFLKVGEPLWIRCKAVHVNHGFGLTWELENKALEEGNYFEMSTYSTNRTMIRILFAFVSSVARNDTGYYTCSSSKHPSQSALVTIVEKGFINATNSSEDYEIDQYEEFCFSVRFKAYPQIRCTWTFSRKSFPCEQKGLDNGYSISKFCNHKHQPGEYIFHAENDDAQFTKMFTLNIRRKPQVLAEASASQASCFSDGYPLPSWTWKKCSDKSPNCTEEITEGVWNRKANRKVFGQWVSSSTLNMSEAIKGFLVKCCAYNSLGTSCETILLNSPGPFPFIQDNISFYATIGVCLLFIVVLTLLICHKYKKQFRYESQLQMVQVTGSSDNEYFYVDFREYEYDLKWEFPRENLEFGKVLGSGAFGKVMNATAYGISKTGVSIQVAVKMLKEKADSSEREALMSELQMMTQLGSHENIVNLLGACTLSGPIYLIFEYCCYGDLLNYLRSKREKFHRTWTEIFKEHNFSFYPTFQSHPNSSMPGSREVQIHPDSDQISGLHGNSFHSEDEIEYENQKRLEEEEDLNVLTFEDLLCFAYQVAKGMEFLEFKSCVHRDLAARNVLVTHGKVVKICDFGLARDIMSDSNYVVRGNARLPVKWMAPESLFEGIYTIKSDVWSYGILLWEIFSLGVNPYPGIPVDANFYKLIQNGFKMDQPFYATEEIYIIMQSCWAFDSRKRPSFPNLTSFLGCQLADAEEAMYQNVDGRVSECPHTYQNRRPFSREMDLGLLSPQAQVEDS
Procedure, shortened: as §1

kinases [11] = details: 1 μM; for % Ctrl, EGFR(L747-E749del, A750P): target EGFR(L747-E749del, A750P); for % Ctrl, EGFR(L747-S752del, P753S): target EGFR(L747-S752del, P753S); for % Ctrl, EGFR(L747-T751del, Sins): target EGFR(L747-T751del, Sins); for % Ctrl, FLT3(ITD): target FLT3(ITD); for % Ctrl, FLT3(ITD, D835V): target FLT3(ITD, D835V); for % Ctrl, FLT3(ITD, F691L): target FLT3(ITD, F691L)
Procedure, shortened: as §1

T8 sequence (P10721 26-976 A829P): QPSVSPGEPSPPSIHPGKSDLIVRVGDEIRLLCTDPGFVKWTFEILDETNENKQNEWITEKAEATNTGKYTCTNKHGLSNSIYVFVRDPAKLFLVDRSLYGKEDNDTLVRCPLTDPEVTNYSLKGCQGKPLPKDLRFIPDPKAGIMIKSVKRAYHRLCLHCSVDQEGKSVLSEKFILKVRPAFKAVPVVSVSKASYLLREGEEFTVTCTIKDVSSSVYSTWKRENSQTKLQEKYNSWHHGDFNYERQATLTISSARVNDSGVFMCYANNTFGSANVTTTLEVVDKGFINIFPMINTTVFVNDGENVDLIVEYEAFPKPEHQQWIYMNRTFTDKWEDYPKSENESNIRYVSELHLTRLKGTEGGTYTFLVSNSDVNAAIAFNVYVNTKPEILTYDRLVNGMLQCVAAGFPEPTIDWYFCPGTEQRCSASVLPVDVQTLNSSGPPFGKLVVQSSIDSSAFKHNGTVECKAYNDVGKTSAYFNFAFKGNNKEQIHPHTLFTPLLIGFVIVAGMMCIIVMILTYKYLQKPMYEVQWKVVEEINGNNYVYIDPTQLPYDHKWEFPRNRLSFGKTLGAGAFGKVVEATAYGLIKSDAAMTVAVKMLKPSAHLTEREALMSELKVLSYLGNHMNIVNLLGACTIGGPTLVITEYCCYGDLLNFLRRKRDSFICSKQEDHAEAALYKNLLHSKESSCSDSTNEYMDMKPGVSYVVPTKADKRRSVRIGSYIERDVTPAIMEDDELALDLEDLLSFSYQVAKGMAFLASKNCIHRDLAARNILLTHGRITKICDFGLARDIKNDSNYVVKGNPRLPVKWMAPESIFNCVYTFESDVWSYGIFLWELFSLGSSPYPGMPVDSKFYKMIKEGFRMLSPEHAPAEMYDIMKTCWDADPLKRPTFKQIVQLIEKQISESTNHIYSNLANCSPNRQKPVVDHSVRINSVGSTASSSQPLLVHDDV
T6 sequence (P07949 29-1114): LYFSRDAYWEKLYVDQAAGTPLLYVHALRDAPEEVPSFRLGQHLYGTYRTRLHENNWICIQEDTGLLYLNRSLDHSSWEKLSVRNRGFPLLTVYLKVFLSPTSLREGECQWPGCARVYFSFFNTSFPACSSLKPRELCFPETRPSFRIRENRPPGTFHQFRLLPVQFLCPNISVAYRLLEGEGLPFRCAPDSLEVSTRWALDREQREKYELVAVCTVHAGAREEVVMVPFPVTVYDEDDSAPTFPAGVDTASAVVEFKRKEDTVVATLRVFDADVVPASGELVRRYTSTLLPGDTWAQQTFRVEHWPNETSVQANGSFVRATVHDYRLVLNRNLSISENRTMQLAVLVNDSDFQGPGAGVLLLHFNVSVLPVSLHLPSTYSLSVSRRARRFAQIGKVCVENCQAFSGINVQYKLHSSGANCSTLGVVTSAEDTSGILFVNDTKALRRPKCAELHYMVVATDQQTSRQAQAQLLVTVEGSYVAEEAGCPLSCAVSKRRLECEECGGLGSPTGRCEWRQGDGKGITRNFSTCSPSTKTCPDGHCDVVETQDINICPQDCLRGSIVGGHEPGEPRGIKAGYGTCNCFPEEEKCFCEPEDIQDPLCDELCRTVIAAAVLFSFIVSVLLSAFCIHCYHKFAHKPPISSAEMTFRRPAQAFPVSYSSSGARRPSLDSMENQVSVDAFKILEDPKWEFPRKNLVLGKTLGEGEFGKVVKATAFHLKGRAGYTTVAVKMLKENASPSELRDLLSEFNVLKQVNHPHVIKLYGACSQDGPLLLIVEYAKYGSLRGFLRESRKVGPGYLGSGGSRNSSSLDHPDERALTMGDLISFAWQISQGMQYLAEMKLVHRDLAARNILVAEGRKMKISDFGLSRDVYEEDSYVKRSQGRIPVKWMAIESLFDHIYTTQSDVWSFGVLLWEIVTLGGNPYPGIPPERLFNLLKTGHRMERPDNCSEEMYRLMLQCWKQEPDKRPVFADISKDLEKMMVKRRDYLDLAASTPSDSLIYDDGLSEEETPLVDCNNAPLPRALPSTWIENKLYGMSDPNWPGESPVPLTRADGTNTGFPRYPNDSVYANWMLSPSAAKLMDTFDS
T7 sequence (P07949 29-1114 V804L): as the sequence (P07949 29-1114) above, with V776L counted along it
T9 sequence (P10721 26-976 D816H): as the sequence (P10721 26-976 A829P) above, with D791H, P804A counted along it

| Compound | % Ctrl, ABL1(M351T)-phosphorylated (kinases [1]) [% Ctrl] | % Ctrl, EGFR (kinases [2]) [% Ctrl] | % Ctrl, EGFR(E746-A750del) (kinases [3]) [% Ctrl] | % Ctrl, EGFR(L861Q) (kinases [4]) [% Ctrl] | % Ctrl, EGFR(T790M) (kinases [5]) [% Ctrl] | % Ctrl, RET (kinases [6]) [% Ctrl] | % Ctrl, RET(V804L) (kinases [7]) [% Ctrl] | % Ctrl, KIT(A829P) (kinases [8]) [% Ctrl] | % Ctrl, KIT(D816H) (kinases [9]) [% Ctrl] | % Ctrl, FLT3(K663Q) (kinases [10]) [% Ctrl] | % Ctrl, EGFR(L747-E749del, A750P) (kinases [11]) [% Ctrl] | % Ctrl, EGFR(L747-S752del, P753S) (kinases [11]) [% Ctrl] | % Ctrl, EGFR(L747-T751del, Sins) (kinases [11]) [% Ctrl] | % Ctrl, FLT3(ITD) (kinases [11]) [% Ctrl] | % Ctrl, FLT3(ITD, D835V) (kinases [11]) [% Ctrl] | % Ctrl, FLT3(ITD, F691L) (kinases [11]) [% Ctrl] |
| --- | --- | --- | --- | --- | --- | --- | --- | --- | --- | --- | --- | --- | --- | --- | --- | --- |
| Cc1cc2c([nH]1)/C=C1\C(=O)Nc3cc(Cl)c(cc31)OCCO[C@@H](C(=O)N1CCN(C)CC1)CN(C)C2=O [Ex. 138, [7R,16a(17)Z]-19-chloro-2,5-dimethyl-7-(4-methylpipearazine-1-carbonyl)-6,7,9,10-tetrahydro-1H-12,14-(ethanediylidene)dipyrrolo[3,2-i:3′,4′-l][1,4,7]dioxazacyclopentadecine-4,16(5H,15H)-dione] | 71 | 76 | 78 | 100 | 94 | 63 | 83 | 100 | 82 | 95 | 100 | 61 | 96 | 73 | 24 | 49 |
| CN1CCOCCOc2cc3c(cc2Cl)NC(=O)/C3=C\c2[nH]ccc2C1=O [Ex. 143, [16a(17)Z]-19-chloro-2,5-dimethyl-6,7,9,10-tetrahydro-1H-12,14-(ethanediylidene)dipyrrolo[3,2-i:3′,4′-l][1,4,7]oxathiazacyclopentadecine-4,16(5H,15H)-dione] | 13 | 100 | 65 | 100 | 100 | 0.6 | 3.5 | 51 | 59 | 11 | 90 | 89 | 96 | 2.5 | 0.6 | 1 |
| Cc1nn(C)c2c1-c1ccc3c(c1)/C(=C/c1[nH]ccc1C(=O)N(C)CCCO2)C(=O)N3 [Ex. 150, [3a(4)Z]-9,14,16-trimethyl-10,11,13,14-tetrahydro-2H-1,17-(ethanediylidene)pyrazolo[4,3-m]dipyrrolo[3,2-f:3′,4′-i][1,4]oxazacyclopentadecine-3,8(5H,9H)-dione] | 94 | 61 | 98 | 69 | 86 | 93 | 77 | 96 | 87 | 71 | 94 | 100 | 94 | 72 | 35 | 59 |
| CN1CCSCCOc2cc3c(cc2Cl)NC(=O)/C3=C\c2[nH]ccc2C1=O [Ex. 153] | 9.5 | 61 | 56 | 43 | 83 | 2.4 | 6.1 | 43 | 27 | 1.4 | 85 | 57 | 38 | 0.5 | 0.5 | 0.5 |

Other lines, results leading:

| % Ctrl, ABL1(M351T)-phosphorylated (kinases [1]) [% Ctrl] | % Ctrl, EGFR (kinases [2]) [% Ctrl] | % Ctrl, EGFR(E746-A750del) (kinases [3]) [% Ctrl] | % Ctrl, EGFR(L861Q) (kinases [4]) [% Ctrl] | % Ctrl, EGFR(T790M) (kinases [5]) [% Ctrl] | % Ctrl, RET (kinases [6]) [% Ctrl] | % Ctrl, RET(V804L) (kinases [7]) [% Ctrl] | % Ctrl, KIT(A829P) (kinases [8]) [% Ctrl] | % Ctrl, KIT(D816H) (kinases [9]) [% Ctrl] | % Ctrl, FLT3(K663Q) (kinases [10]) [% Ctrl] | % Ctrl, EGFR(L747-E749del, A750P) (kinases [11]) [% Ctrl] | % Ctrl, EGFR(L747-S752del, P753S) (kinases [11]) [% Ctrl] | % Ctrl, EGFR(L747-T751del, Sins) (kinases [11]) [% Ctrl] | % Ctrl, FLT3(ITD) (kinases [11]) [% Ctrl] | % Ctrl, FLT3(ITD, D835V) (kinases [11]) [% Ctrl] | % Ctrl, FLT3(ITD, F691L) (kinases [11]) [% Ctrl] | Compound |
| --- | --- | --- | --- | --- | --- | --- | --- | --- | --- | --- | --- | --- | --- | --- | --- | --- |
| 7.3 | 94 | 72 | 88 | 36 | 42 | 15 | 74 | 67 | 44 | 71 | 77 | 81 | 8.1 | 1.2 | 0.9 | Cc1cc2c([nH]1)/C=C1\C(=O)Nc3ccc(cc31)-c1c(noc1C)CNCCN(C)C2=O [Ex. 139, [3a(4)Z]-6,9,16-trimethyl-10,11,12,13-tetrahydro-2H-1,17-(ethanediylidene)[1,2]oxazolo[4,3-m]dipyrrolo[3,2-f:3′,4′-i][1,4]diazacyclopentadecine-3,8(5H,9H)-dione] |
| 67 | 51 | 73 | 89 | 57 | 45 | 3 | 92 | 100 | 14 | 38 | 60 | 77 | 4.7 | 0.3 | 3.2 | Cc1cc2c([nH]1)/C=C1\C(=O)Nc3ccc(cc31)-c1c(C)nn(C)c1COCCN(C)C2=O [Ex. 146, [3a(4)Z]-6,9,14,16-tetramethyl-10,11,13,14-tetrahydro-2H-1,17-(ethanediylidene)pyrazolo[4,3-m]dipyrrolo[3,2-f:3′,4′-i][1,4]oxazacyclopentadecine-3,8(5H,9H)-dione] |
